Measurements as given in patent publication US20250127778A1, “CANCER IMMUNOTHERAPY COMPOSITION CONTAINING INTERACTION INHIBITOR OF STING AND TRIM29 AS ACTIVE INGREDIENT” (SPARK BIOPHARMA, INC, priority 2021, published 2025).

What was measured:
[1] = test system: bone-marrow derived dendritic cells (BMDC) and OT-1 T cells; test: BMDC cross-antigen presentation with killed MC38 or MC38-OVA tumor cells; format: cell-based, mouse; conditions: with cGAMP, FIG. 19
Procedure: In the same manner as <Experimental Example 7> above, mouse bone marrow-derived cells were obtained and differentiated. On the sixth day, 2×10^6 dendritic cells (BMDC) were co-cultured with 2×10^6 of MC38 or MC38-OVA tumor cells frozen-thawed three times and treated with cGAMP and/or the compound of Formula 1 in various concentrations. The cells were cultured at 37° C. in a 5% CO2 incubator for 24 hours, and then flow cytometry of dendritic cell activation markers (CD80, CD86, MHC II) was performed. Then, 5×10^4 cells were incubated with 2×10^5 CFSE-labeled OT-1 T cells (OVA-specific CD8^+ T cells) to observe OT-1 T cell proliferation.

tumor = test: Combination with PD-1 antibody immune checkpoint therapeutic agent in tumor model; format: in vivo, mouse; conditions: intratumoral, combination with intravenous PD-1 antibody compared to PD-1 antibody alone; FIG. 32
Excerpt: It was confirmed whether the efficacy can be increased in case of treating in combination with existing immune checkpoint therapeutic agents from the efficacy of constructing the systemic anticancer immune system of the compound of Formula 1.

STING [2] = molecular target: T1, STING (Mus musculus, UniProt Q3TBT3); test: CETSA and ITDRF in Raw264.7 cells, STING; format: binding; parameters: endogenous in cells; host or cells: Raw264.7
T1 sequence (Q3TBT3 1-378): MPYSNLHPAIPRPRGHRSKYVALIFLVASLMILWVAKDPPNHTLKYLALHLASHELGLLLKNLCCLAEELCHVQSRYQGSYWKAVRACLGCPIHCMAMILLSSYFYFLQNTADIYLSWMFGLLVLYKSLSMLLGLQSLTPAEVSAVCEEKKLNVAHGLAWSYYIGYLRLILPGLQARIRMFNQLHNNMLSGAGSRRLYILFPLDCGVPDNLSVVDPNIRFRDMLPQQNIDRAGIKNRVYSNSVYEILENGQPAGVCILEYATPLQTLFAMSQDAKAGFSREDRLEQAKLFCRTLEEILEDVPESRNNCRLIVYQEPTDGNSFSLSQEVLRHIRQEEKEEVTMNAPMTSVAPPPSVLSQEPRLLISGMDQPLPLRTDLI
Excerpt: It was verified whether the oxopiperazine derivative of the present invention was bound to STING among STING and TRIM29 to inhibit interaction thereof, based on the compound of Formula 1, by the cellular thermal shift assay (CETSA) and the isothermal dose response fingerprint (ITDRF) which were major technologies for verifying the interaction between small molecule compounds and target proteins. (D. M. Molinaetal., Science 2013, 341, 84-87.)
To verify the target of the compound of Formula 1 using the CETSA technique, the human A431 cell lines and mouse Raw264.7 cell lines were seeded on a 100-mm or 150-mm culture dish and cultured for one day. […] Afterwards, centrifugation was performed at 20000 g for 20 minutes at 4° C., the supernatant was transferred to a new container, and each concentration was measured by using the Micro BCA™ protein assay kit (ThermoFisher) according to the protocol of the manufacturer. The concentration of each sample was equally adjusted by using the RIPA lysis buffer, the 5× SDS-PAGE loading buffer (Biosesang) was added according to the ratio of the manufacturer, and the resultant was treated at 95° C. for 5 minutes and analyzed by using the Western blotting method described above.

STING [3] = molecular target: T1, STING; test: Flow cytometry of intracellular STING in Raw264.7 cells; format: cell-based; parameters: endogenous in cells; host or cells: Raw264.7; conditions: 24 hours, FIG. 15
Procedure: It was verified whether the oxopiperazine derivatives increased the efficacy of STING agonists and other cancer immunotherapy, including immune checkpoint inhibitors. First, it was verified through flow cytometry and Western blotting whether the oxopiperazine derivatives increase the amount of STING.
To measure the intracellular amount of STING through flow cytometry, Raw264.7 cells were seeded in a transparent 6-well plate and cultured for one day. Thereafter, the cells were treated with a solution, in which the compound of Formula 1 is diluted in a culture medium without FBS, and cultured for 24 hours. […] After centrifugation of the collected cells, the supernatant was removed, the cells were redistributed in FACS solution (Hank's balanced salt solution (HBSS) including 2% horse serum and 0.05% NaN3), and the number of cells was measured. […] Finally, the Triton solution was added, centrifugation was performed, the supernatant was removed, the cells were redistributed into 200 μL of the Triton solution and analyzed by using a FACSCalibur instrument from BD Bioscience, and the results were quantitatively analyzed by using the FlowJo program from Tree Star, Inc.

## COc1ccc(CC2=CN(c3ccc(C(=O)NC[C@H]4CCCO4)cc3[N+](=O)[O-])[C@H](C(C)C)C(=O)N2Cc2ccc(O)cc2)cc1 [Formula 1, 4-((R)-4-(4-hydroxybenzyl)-2-isopropyl-5-(4-methoxybenzyl)-3-oxo-3,4-dihydropyrazin-1 (2H)-yl)-3-nitro-N-(((R)-tetrahydrofuran-2-yl)methyl)benzamide]
[1]; MC38 control group
  OT-1 T cell proliferation (cross-antigen presentation): such an effect did not occur at all
[1]; killed MC38-OVA cells, concentration-dependent
  OT-1 T cell proliferation (cross-antigen presentation): promoted cell proliferation
tumor
  final tumor weight: decreased in a concentration-dependent manner
  tumor growth: decreased in a concentration-dependent manner
STING [2]; FIG. 13
  CETSA thermal stability of STING: induced thermal destabilization by selective binding only to STING
STING [2]; FIG. 14
  ITDRF thermal stability of STING: reduced the thermal stability of STING at high concentrations in a concentration-dependent manner
STING [3]
  fluorescence labeling intensity of intracellular STING: increased in a concentration-dependent manner
